Columns and labels:
Stagonospora nodorum = assay: Test D: wheat glume blotch, preventive spray on wheat seedlings; conditions: 100 = 100% disease control; for Test D disease control rating: 10 ppm test solution, 0 = no control relative to controls; for Test D rating (% disease control): 10 ppm, wheat glume blotch, 0 = no control
From the text: (§1) General protocol for preparing test solutions for Tests A-G: the test compounds were first dissolved in acetone in an amount equal to 3% of the final volume and then suspended at the desired concentration (in ppm) in acetone and purified water (50/50 mix by volume) containing 250 ppm of the surfactant PEG400 (polyhydric alcohol esters). The resulting test suspensions were then used in Tests A-G. Compounds were sprayed at a concentration of 50 ppm (*) or 10 ppm to the point of run-off on the test plants, the equivalent of a rate of 200 g/ha or 40 g/ha, respectively.
The test solution was sprayed to the point of run-off on wheat seedlings. The following day the seedlings were inoculated with a spore suspension of Stagonospora nodorum (also known as Septoria nodorum; the causal agent of wheat glume blotch) and incubated in a saturated atmosphere at 20° C. for 48 h, and then moved to a growth chamber at 20° C. for 6 days, after which time visual disease ratings were made.
(§2) Compounds with an asterisks (*) were applied at a concentration of 50 ppm, otherwise test solutions were applied at 10 ppm.

[1] = test system: Erysiphe graminis f sp. tritici; assay: Test G: wheat powdery mildew, preventive spray on wheat seedlings; conditions: 100 = 100% disease control; for Test G disease control rating: 10 ppm test solution, 0 = no control relative to controls; for Test G rating (% disease control): 10 ppm, wheat powdery mildew, 0 = no control
[2] = test system: Puccinia recondita f sp. tritici; assay: Test F: wheat leaf rust, preventive spray on wheat seedlings; conditions: 100 = 100% disease control; for Test F disease control rating: 10 ppm test solution, 0 = no control relative to controls; for Test F rating (% disease control): 10 ppm, wheat leaf rust, 0 = no control
Zymoseptoria tritici = assay: Test E: wheat leaf blotch, preventive spray on wheat seedlings; conditions: 100 = 100% disease control; for Test E disease control rating: 10 ppm test solution, 0 = no control relative to controls; for Test E rating (% disease control): 10 ppm, wheat leaf blotch, 0 = no control
From the text: as §1
The test solution was sprayed to the point of run-off on wheat seedlings. The following day the seedlings were inoculated with a spore suspension of Zymoseptoria tritici (the causal agent of wheat leaf blotch) and incubated in a saturated atmosphere at 24° C. for 48 h, and then moved to a growth chamber at 20° C. for 17 days, after which time visual disease ratings were made.
as §2

Structure (SMILES): OC(Cn1cncn1)(C1=NOC(COc2ccc(Cl)cc2)C1)C1CCCCC1 (single isomer, unassigned) [Compound 266]
- Test D disease control rating (Stagonospora nodorum): 100%
- Test G disease control rating [1]: 100%
- Test F disease control rating [2]: 100%
- Test E disease control rating (Zymoseptoria tritici): 0%

Structure (SMILES): CC(C)(C)C(O)(Cn1cncn1)C1=NOC(COc2ccc(Cl)cc2)C1 (single isomer, unassigned) [Compound 242]
- Test D disease control rating (Stagonospora nodorum): 0%
- Test G disease control rating [1]: 68%
- Test F disease control rating [2]: 99%
- Test E disease control rating (Zymoseptoria tritici): 0%

Structure (SMILES): CCC(C)(C)C(O)(Cn1cncn1)C1=NOC(COc2ccc(C(F)(F)F)cc2)C1 (single isomer, unassigned) [Compound 262]
- Test D disease control rating (Stagonospora nodorum): 0%
- Test G disease control rating [1]: 98%
- Test F disease control rating [2]: 99%
- Test E disease control rating (Zymoseptoria tritici): 41%

Structure (SMILES): OC(Cn1cncn1)(C1=NOC(Cc2ccc(-c3ccccc3)cc2)C1)c1ccc(Cl)cc1 (single isomer, unassigned) [Compound 205]
- Test D rating (% disease control) (Stagonospora nodorum): 10%
- Test G rating (% disease control) [1]: 98%
- Test F rating (% disease control) [2]: 68%
- Test E rating (% disease control) (Zymoseptoria tritici): 6%

Structure (SMILES): CC(C)(C)C(O)(Cn1cncn1)C1=NOC(COc2ccc(-c3ccccc3)cc2)C1 (single isomer, unassigned) [Compound 229]
- Test D disease control rating (Stagonospora nodorum): 0%
- Test G disease control rating [1]: 98%
- Test F disease control rating [2]: 0%
- Test E disease control rating (Zymoseptoria tritici): 6%

Structure (SMILES): CC(C)(C)C(O)(Cn1cncn1)C1=NOC(COc2ccc(Cl)cc2Cl)C1 (single isomer, unassigned) [Compound 255]
- Test D disease control rating (Stagonospora nodorum): 100%
- Test G disease control rating [1]: 100%
- Test F disease control rating [2]: 100%
- Test E disease control rating (Zymoseptoria tritici): 1%

Structure (SMILES): CC(C)(C)C(O)(Cn1cncn1)C1=NOC(CCOc2ccc(Cl)cc2)C1 (single isomer, unassigned) [Compound 208]
- Test D rating (% disease control) (Stagonospora nodorum): 100%
- Test G rating (% disease control) [1]: 100%
- Test F rating (% disease control) [2]: 100%
- Test E rating (% disease control) (Zymoseptoria tritici): 74%

Structure (SMILES): CC(C)(C)CC(O)(Cn1cncn1)C1=NOC(COc2ccc(C(F)(F)F)cc2)C1 (single isomer, unassigned) [Compound 240]
- Test G disease control rating [1]: 99%
- Test F disease control rating [2]: 100%
- Test E disease control rating (Zymoseptoria tritici): 0%

Structure (SMILES): CC(C)CC(O)(Cn1cncn1)C1=NOC(COc2ccc(Cl)cc2)C1 (single isomer, unassigned) [Compound 267]
- Test D disease control rating (Stagonospora nodorum): 100%
- Test G disease control rating [1]: 100%
- Test F disease control rating [2]: 100%
- Test E disease control rating (Zymoseptoria tritici): 3%

Structure (SMILES): CC1(C(O)(Cn2cncn2)C2=NOC(COc3ccc(Cl)cc3)C2)CC1 (single isomer, unassigned) [Compound 224]
- Test G disease control rating [1]: 100%
- Test F disease control rating [2]: 100%
- Test E disease control rating (Zymoseptoria tritici): 30%

Structure (SMILES): CCC(C)(C)C(O)(Cn1cncn1)C1=NOC(COc2ccc(C(F)(F)F)cc2)C1 (single isomer, unassigned) [Compound 261]
- Test D disease control rating (Stagonospora nodorum): 100%
- Test G disease control rating [1]: 100%
- Test F disease control rating [2]: 100%
- Test E disease control rating (Zymoseptoria tritici): 92%

Structure (SMILES): CC(C)(C)C(O)(Cn1cncn1)C1=NOC(CCOc2ccc(Cl)cc2)C1 (single isomer, unassigned) [Compound 209]
- Test D rating (% disease control) (Stagonospora nodorum): 99%
- Test G rating (% disease control) [1]: 100%
- Test F rating (% disease control) [2]: 100%
- Test E rating (% disease control) (Zymoseptoria tritici): 11%

Structure (SMILES): CC(C)(C)C(O)(Cn1cnnn1)C1=NOC(COc2ccc(Cl)cc2)C1 (centres unmarked) [Compound 246]
- Test D disease control rating (Stagonospora nodorum): 98%
- Test G disease control rating [1]: 95%
- Test F disease control rating [2]: 100%
- Test E disease control rating (Zymoseptoria tritici): 0%

Structure (SMILES): CC(C)(C)C(O)(Cn1cncn1)C1=NOC(COc2cccc(C(F)(F)F)c2)C1 (single isomer, unassigned) [Compound 253]
- Test D disease control rating (Stagonospora nodorum): 99%
- Test G disease control rating [1]: 100%
- Test F disease control rating [2]: 100%
- Test E disease control rating (Zymoseptoria tritici): 3%

Structure (SMILES): CC(C)(C)C(O)(Cn1cncn1)C1=NOC(CCOc2ccc(F)cc2)C1 (single isomer, unassigned) [Compound 269]
- Test D disease control rating (Stagonospora nodorum): 99%
- Test G disease control rating [1]: 100%
- Test F disease control rating [2]: 100%
- Test E disease control rating (Zymoseptoria tritici): 73%

Structure (SMILES): COc1ccc(OCC2CC(C(O)(Cn3cncn3)C(C)(C)C)=NO2)cc1 (single isomer, unassigned) [Compound 260]
- Test D disease control rating (Stagonospora nodorum): 99%
- Test G disease control rating [1]: 100%
- Test F disease control rating [2]: 98%
- Test E disease control rating (Zymoseptoria tritici): 1%

Structure (SMILES): OC(COc1ccc(Cl)cc1)(Cn1cncn1)C1=NOC(c2ccc(Cl)cc2)C1 (centres unmarked) [Compound 273]
- Test D disease control rating (Stagonospora nodorum): 11%
- Test G disease control rating [1]: 69%
- Test F disease control rating [2]: 98%
- Test E disease control rating (Zymoseptoria tritici): 2%

Structure (SMILES): CC1(C(O)(Cn2cncn2)C2=NOC(COc3ccc(Cl)cc3)C2)CC1 (single isomer, unassigned) [Compound 225]
- Test G disease control rating [1]: 99%
- Test F disease control rating [2]: 100%
- Test E disease control rating (Zymoseptoria tritici): 0%

Structure (SMILES): Cc1ccc(OCC2CC(C(O)(Cn3cncn3)C(C)(C)C)=NO2)cc1 (single isomer, unassigned) [Compound 235]
- Test G disease control rating [1]: 99%
- Test F disease control rating [2]: 87%
- Test E disease control rating (Zymoseptoria tritici): 8%

Structure (SMILES): OC(Cn1cncn1)(C1=NOC(COc2ccc(Cl)cc2)C1)C1(Cl)CC1 (single isomer, unassigned) [Compound 251]
- Test D disease control rating (Stagonospora nodorum): 100%
- Test G disease control rating [1]: 100%
- Test F disease control rating [2]: 100%
- Test E disease control rating (Zymoseptoria tritici): 3%

Structure (SMILES): CC(C)(C)C(O)(Cn1cncn1)C1=NOC(COc2ccc(Cl)c(Cl)c2)C1 (single isomer, unassigned) [Compound 258]
- Test D disease control rating (Stagonospora nodorum): 100%
- Test G disease control rating [1]: 100%
- Test F disease control rating [2]: 100%
- Test E disease control rating (Zymoseptoria tritici): 0%

Structure (SMILES): OC(Cn1cncn1)(C1=NOC(COc2ccc(Cl)cc2)C1)C1CCCCC1 (single isomer, unassigned) [Compound 265]
- Test D disease control rating (Stagonospora nodorum): 99%
- Test G disease control rating [1]: 100%
- Test F disease control rating [2]: 100%
- Test E disease control rating (Zymoseptoria tritici): 1%

Structure (SMILES): OC(COc1ccc(Cl)cc1)(Cn1cncn1)C1=NOC(COc2ccc(Cl)cc2)C1 (centres unmarked) [Compound 271]
- Test D disease control rating (Stagonospora nodorum): 42%
- Test G disease control rating [1]: 92%
- Test F disease control rating [2]: 100%
- Test E disease control rating (Zymoseptoria tritici): 2%

Structure (SMILES): OC(Cn1cncn1)(Cn1cncn1)C1=NOC(COc2ccc(Cl)cc2)C1 (centres unmarked) [Compound 248]
- Test D disease control rating (Stagonospora nodorum): 0%
- Test G disease control rating [1]: 98%
- Test F disease control rating [2]: 100%
- Test E disease control rating (Zymoseptoria tritici): 0%

Structure (SMILES): CC(C)(C)CC(O)(Cn1cncn1)C1=NOC(COc2ccc(F)cc2)C1 (single isomer, unassigned) [Compound 245]
- Test D disease control rating (Stagonospora nodorum): 51%
- Test G disease control rating [1]: 98%
- Test F disease control rating [2]: 98%
- Test E disease control rating (Zymoseptoria tritici): 2%

Structure (SMILES): CC1(C(O)(Cn2cncn2)C2=NOC(COc3ccc(C(F)(F)F)cc3)C2)CC1 (single isomer, unassigned) [Compound 237]
- Test D disease control rating (Stagonospora nodorum): 89%
- Test G disease control rating [1]: 98%
- Test F disease control rating [2]: 100%
- Test E disease control rating (Zymoseptoria tritici): 0%

Structure (SMILES): CC(C)(C)C(O)(Cn1cncn1)C1=NOC(COCc2ccc(Cl)cc2)C1 (single isomer, unassigned) [Compound 264]
- Test D disease control rating (Stagonospora nodorum): 0%
- Test G disease control rating [1]: 99%
- Test F disease control rating [2]: 0%
- Test E disease control rating (Zymoseptoria tritici): 0%

Structure (SMILES): CC1(C(O)(Cn2cncn2)C2=NOC(COc3ccc(Br)cc3)C2)CC1 (single isomer, unassigned) [Compound 239]
- Test D disease control rating (Stagonospora nodorum): 98%
- Test G disease control rating [1]: 99%
- Test F disease control rating [2]: 100%
- Test E disease control rating (Zymoseptoria tritici): 0%

Structure (SMILES): Cc1ccc(OCC2CC(C(O)(Cn3cncn3)C(C)(C)C)=NO2)cc1 (single isomer, unassigned) [Compound 234]
- Test G disease control rating [1]: 99%
- Test F disease control rating [2]: 0%
- Test E disease control rating (Zymoseptoria tritici): 0%

Structure (SMILES): CC(C)(C)C(O)(Cn1cncn1)C1=NOC(CCOc2ccc(F)cc2)C1 (single isomer, unassigned) [Compound 270]
- Test D disease control rating (Stagonospora nodorum): 99%
- Test G disease control rating [1]: 100%
- Test F disease control rating [2]: 100%
- Test E disease control rating (Zymoseptoria tritici): 75%

Structure (SMILES): OC(COc1ccc(Cl)cc1)(Cn1cncn1)C1=NOC(c2ccc(Cl)cc2)C1 (centres unmarked) [Compound 272]
- Test D disease control rating (Stagonospora nodorum): 69%
- Test G disease control rating [1]: 99%
- Test F disease control rating [2]: 100%
- Test E disease control rating (Zymoseptoria tritici): 0%

Structure (SMILES): CC1(C(O)(Cn2cncn2)C2=NOC(COc3ccc(Br)cc3)C2)CC1 (single isomer, unassigned) [Compound 238]
- Test D disease control rating (Stagonospora nodorum): 99%
- Test G disease control rating [1]: 99%
- Test F disease control rating [2]: 100%
- Test E disease control rating (Zymoseptoria tritici): 0%

Structure (SMILES): OC(Cn1cncn1)(C1=NOC(COc2ccc(Cl)cc2)C1)C1(Cl)CC1 (single isomer, unassigned) [Compound 252]
- Test D disease control rating (Stagonospora nodorum): 78%
- Test G disease control rating [1]: 89%
- Test F disease control rating [2]: 100%
- Test E disease control rating (Zymoseptoria tritici): 2%

Structure (SMILES): CC1(C(O)(Cn2cncn2)C2=NOC(COc3ccc(C(F)(F)F)cc3)C2)CC1 (single isomer, unassigned) [Compound 236]
- Test D disease control rating (Stagonospora nodorum): 99%
- Test G disease control rating [1]: 100%
- Test F disease control rating [2]: 100%
- Test E disease control rating (Zymoseptoria tritici): 16%

Structure (SMILES): CC(C)(C)CC(O)(Cn1cncn1)C1=NOC(COc2ccc(C(F)(F)F)cc2)C1 (single isomer, unassigned) [Compound 241]
- Test G disease control rating [1]: 90%
- Test F disease control rating [2]: 99%
- Test E disease control rating (Zymoseptoria tritici): 0%

Reference: patent US20160242416A1, “FUNGICIDAL ISOXAZOLINE CARBINOLS” (E I DU PONT DE NEMOURS AND COMPANY, priority 2015, published 2016)
